According to publication PMC8666671, “Fine-tuning spermidine binding modes in the putrescine binding protein PotF” (The Journal of Biological Chemistry, 2021):
Positions count from the first letter of the chain named. Values joined by “and” are separate entries in the source; they are usually repeats but may differ in a detail not shown here. Identical values can stand only once.

Assays:
[1] = molecular target: T1, PotF/D–S247D (Escherichia coli, UniProt P31133, A182D/D39E/F276W/L348Q/S38T/S87Y); test: ITC, PotF/D–S247D; format: binding; conditions: 293 K
T1 construct: without the N-terminal signal peptide; made in house; host or cells: E. coli BL21 (DE3)
T1 sequence (P31133 27-370 S38T/D39E/S87Y/A182D/F276W/L348Q): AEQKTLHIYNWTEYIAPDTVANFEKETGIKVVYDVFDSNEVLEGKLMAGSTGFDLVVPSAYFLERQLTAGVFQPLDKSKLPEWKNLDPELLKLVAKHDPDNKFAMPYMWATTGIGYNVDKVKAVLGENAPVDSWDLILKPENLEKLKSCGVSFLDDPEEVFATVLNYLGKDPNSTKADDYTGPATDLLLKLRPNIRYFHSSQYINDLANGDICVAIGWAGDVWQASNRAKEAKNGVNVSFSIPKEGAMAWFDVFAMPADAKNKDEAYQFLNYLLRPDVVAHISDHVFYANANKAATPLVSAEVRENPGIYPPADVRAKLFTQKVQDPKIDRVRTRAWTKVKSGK
Description: (§1) Ligands were always freshly prepared in the exact same buffer as was used for the size exclusion run. Samples were degassed, and temperature was equilibrated using a degassing station (TA Instruments). About 400 μl protein sample of different concentrations (Table S5) depending on affinity was transferred into the sample cell of a nanoITC (TA Instruments), and 50 μl of about tenfold concentrated ligand solution was loaded into the injection needle. Multiple injection measurements were carried out at 293 K, 300 rpm stirring rate, and 250 s spacings between each 2 μl injection. The heat quantity past injection was determined by integration of the measured peaks. Every protein–ligand combination was measured as biological triplicate. Subtraction of heat of dilution measurements, peak integration, and one site binding fits were done with NanoAnalyze (TA Instruments). Reported errors are the errors between fits of the measured triplicates.

[2] = molecular target: T2, PotF/D–E39D–F88L (Escherichia coli, UniProt P31133, A182D/D247S/F276W/F88L/L348Q/S38T/S87Y); test: ITC, PotF/D–E39D–F88L; format: binding; conditions: 293 K
T2 construct: without the N-terminal signal peptide; made in house; host or cells: E. coli BL21 (DE3)
T2 sequence (P31133 27-370 S38T/S87Y/F88L/A182D/D247S/F276W/L348Q): T1 sequence (P31133 27-370 S38T/D39E/S87Y/A182D/F276W/L348Q) with E13D, F62L, D221S
Description: as §1

[3] = test system: PotD; conditions: cited from earlier work
[4] = ITC, 50 mM Tris pH 8, 300 mM NaCl, biological triplicates

Compound: NCCCCNCCCN [SPD, spermidine]
- n ([1]; ITC binding stoichiometry): 0.94 ± 0.01
- ΔG ([1]; ITC): -28.3 ± 0.753 kJ/mol
- ΔH ([1]; ITC): -28.3 ± 0.33 kJ/mol
- −TΔS ([1]; ITC): -0.042 ± 1.05 kJ/mol
- Kd [1, 4]: ~9.4 µM and 9.4 µM and 9.43 µM
- n ([2]; ITC binding stoichiometry): 1.03 ± 0.01
- ΔG ([2]; ITC): -28.1 ± 0.13 kJ/mol
- ΔH ([2]; ITC): -51.51 ± 0.46 kJ/mol
- −TΔS ([2]; ITC): 23.4 ± 0.544 kJ/mol
- Kd [2, 4]: ~9.9 µM and 9.9 µM
- ΔG ([3]; ITC): -46.57 ± 0.502 kJ/mol
- ΔH ([3]; ITC): -68.62 ± 5.86 kJ/mol
- −TΔS ([3]; ITC): 21.9 ± 5.82 kJ/mol
- Kd [3]: ~0.006 µM
